Here are results for 1 compound from ChEMBL document CHEMBL2074410, “Chelerythrine stimulates GSH transport by rat Mrp2 (Abcc2) expressed in canine kidney cells” (Am J Physiol Gastrointest Liver Physiol, 2003).

The target of this data set is ATP-binding cassette sub-family C member 2 (Rattus norvegicus, UniProt Q63120). Briefly: TP_TRANSPORTER: transcellular transport in MDCKII(+GSH). The data set is classed as functional, cell-based. To be noted: dog, mdck-ii.
Chain of ATP-binding cassette sub-family C member 2 (Q63120 whole entry): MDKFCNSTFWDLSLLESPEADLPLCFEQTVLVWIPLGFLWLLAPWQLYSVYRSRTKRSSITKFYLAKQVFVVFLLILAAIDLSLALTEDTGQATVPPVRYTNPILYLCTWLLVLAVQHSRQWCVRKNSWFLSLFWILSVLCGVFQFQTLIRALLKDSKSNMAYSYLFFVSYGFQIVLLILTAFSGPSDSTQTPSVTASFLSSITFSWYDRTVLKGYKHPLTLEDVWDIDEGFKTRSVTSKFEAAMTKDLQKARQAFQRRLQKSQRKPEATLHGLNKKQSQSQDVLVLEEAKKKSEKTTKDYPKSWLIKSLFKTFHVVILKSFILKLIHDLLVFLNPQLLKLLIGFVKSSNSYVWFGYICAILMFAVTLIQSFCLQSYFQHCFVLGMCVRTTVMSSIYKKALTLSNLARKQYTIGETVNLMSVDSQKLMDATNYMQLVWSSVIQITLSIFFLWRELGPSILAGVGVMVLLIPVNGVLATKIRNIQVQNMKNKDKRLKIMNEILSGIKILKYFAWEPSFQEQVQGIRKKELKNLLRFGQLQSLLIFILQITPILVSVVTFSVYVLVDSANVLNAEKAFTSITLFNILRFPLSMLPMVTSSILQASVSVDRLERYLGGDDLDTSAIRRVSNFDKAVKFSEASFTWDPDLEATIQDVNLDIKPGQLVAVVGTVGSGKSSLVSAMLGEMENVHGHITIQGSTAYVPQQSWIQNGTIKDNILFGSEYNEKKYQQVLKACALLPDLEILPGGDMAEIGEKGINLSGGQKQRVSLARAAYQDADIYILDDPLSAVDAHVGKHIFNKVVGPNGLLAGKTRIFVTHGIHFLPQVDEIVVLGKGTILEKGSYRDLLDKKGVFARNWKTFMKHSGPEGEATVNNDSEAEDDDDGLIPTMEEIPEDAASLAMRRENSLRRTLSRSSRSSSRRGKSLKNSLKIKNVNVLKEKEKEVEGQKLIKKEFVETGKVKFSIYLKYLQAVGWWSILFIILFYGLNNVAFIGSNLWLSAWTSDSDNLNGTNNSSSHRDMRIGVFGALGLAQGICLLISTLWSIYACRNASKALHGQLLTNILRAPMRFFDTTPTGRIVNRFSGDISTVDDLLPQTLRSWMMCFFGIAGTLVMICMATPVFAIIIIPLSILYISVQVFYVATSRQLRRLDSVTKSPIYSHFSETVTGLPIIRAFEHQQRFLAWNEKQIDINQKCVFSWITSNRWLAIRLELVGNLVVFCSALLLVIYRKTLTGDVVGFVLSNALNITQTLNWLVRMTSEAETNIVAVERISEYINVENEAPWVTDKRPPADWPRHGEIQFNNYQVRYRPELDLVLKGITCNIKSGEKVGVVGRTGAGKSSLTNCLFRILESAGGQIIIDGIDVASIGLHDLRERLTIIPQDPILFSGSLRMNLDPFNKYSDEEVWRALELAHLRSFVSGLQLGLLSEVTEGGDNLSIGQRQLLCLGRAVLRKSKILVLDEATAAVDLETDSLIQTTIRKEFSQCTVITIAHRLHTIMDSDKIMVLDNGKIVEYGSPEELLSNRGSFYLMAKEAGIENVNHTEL

On to `COc1ccc2c(c[n+](C)c3c4cc5c(cc4ccc23)OCO5)c1OC` [CHELERYTHRINE], for which the Activity entry was “substrate []”.
